According to patent US20180153995A1, “USE OF ANTIMICROBIAL POLYMERS FOR RE-SENSITIZATION OF MICROORGANISMS UPON EMERGENCE OF RESISTANCE TO ANTI-MICROBIAL AGENTS” (Technion Research & Development Foundation Limited, priority 2008, published 2018):
Like-named read-outs stand apart in the source and are kept apart here.

Assays:
[1] = test system: MRSA 15903; assay: microbe, parasite or virus in culture; type: cell-based, Staphylococcus aureus
Experimental: The fractionary inhibitory (FIC) concentration index for combinations of two antimicrobial agents was calculated as follows: FIC index=FICA+FICB=A/MICA+B/MICB where A and B are the MIC values of agent A and agent B in the combination, MICA and MICB are the MICs of agent A and agent B alone, and FICA and FICB are the FICs of agent A and agent B.
The FIC indexes were interpreted as follows: less than 0.5 indicates a clear re-sensitizing effect; from 0.5 to 4 indicates a marginal or null re-sensitizing effect; and over 4 indicates antagonism.
Experimental data for FIG. 4 were obtained as follows.

[2] = test system: S. aureus 15819; assay: Antibiotic MIC by microdilution with or without sub-MIC polymer; type: cell-based, Staphylococcus aureus; settings: S. aureus 15819
[3] = test system: S. aureus 17314; assay: as above; type: cell-based, Staphylococcus aureus; settings: S. aureus 17314; +½ MIC (3.12 μM) C16(9-ene)KKNC12KNH2
[4] = test system: E. coli 14384; assay: as above; type: cell-based, Escherichia coli; settings: E. coli 14384
Experimental: (§1) MICs were determined by microdilution susceptibility testing in 96-well plates (by Nunc) using inocula of 10^5 bacteria per ml. Cell populations were evaluated by optical density measurements at 620 nm and were calibrated against a set of standards. Hundred (100) μl of a bacterial suspension were added to 100 μl of culture medium (control) or to 100 μl of culture medium containing various polymer concentrations in 2-fold serial dilutions. Inhibition of proliferation was determined by optical density measurements at 620 nm after an incubation period of 24 hours at 37° C.
(§2) 100 μl of a bacterial suspension were added to 100 μl of culture medium (control) or to 100 μl of culture medium containing various antibiotic and C14(9-ene)KKNC12KNH2 (SEQ ID NO: 5) concentrations in 2-fold serial dilutions. Inhibition of proliferation was determined by optical density measurements at 620 nm after an incubation period of 24 hours at 37° C.

[5] = test system: E. coli 16327; assay: microbe, parasite or virus in culture; settings: for Antibiotic MIC: E. coli 16327
Experimental: as §1, §2

[6] = test system: E. coli 14182; assay: Antibiotic MIC by microdilution with or without sub-MIC polymer; type: cell-based, Escherichia coli; settings: polymer at ½ of its MIC
[7] = test system: S. maltophila 748; assay: as above; type: cell-based, Stenotrophomonas maltophila
[8] = test system: E. coli K-12 efflux knockout mutant; type: cell-based, Escherichia coli; settings: E. coli AG100A (efflux−)
Experimental: as §1

[9] = test system: E. coli K-12 resistant wild type; type: cell-based, Escherichia coli; settings: E. coli AG100 (w.t.)
[10] = test system: S. aureus 43300; assay: Antibiotic MIC by microdilution with or without sub-MIC polymer; type: cell-based, Staphylococcus aureus
[11] = +¼ MIC (1.6 μM) C12K(KNC12K)3NH2
[12] = +½ MIC (3.12 μM) C12K(KNC12K)3NH2
[13] = +⅓ MIC (2.1 μM) C12K(KNC12K)3NH2
[14] = +¼ MIC (1.6 μM) C14(9-ene)KKNC12KNH2
[15] = +½ MIC (3.12 μM) C14(9-ene)KKNC12KNH2
[16] = +⅓ MIC (2.1 μM) C14(9-ene)KKNC12KNH2
[17] = +¼ MIC (1.6 μM) C16(9-ene)KKNC12KNH2
[18] = +½ MIC (3.12 μM) C16(9-ene)KKNC12KNH2
[19] = +⅓ MIC (2.1 μM) C16(9-ene)KKNC12KNH2
[20] = polymer at ¼ of its MIC (Table 16)
[21] = polymer at ½ of its MIC (Table 16)
[22] = polymer at ⅓ of its MIC (Table 16)
[23] = the OAK at ¼ of its MIC (Table 17)
[24] = the OAK at ½ of its MIC (Table 17)
[25] = the OAK at ⅓ of its MIC (Table 17)

gentamicin
MIC ([1]; MRSA 15903, +¼ polymer MIC (1.6 μM) NC12(KNC12K)2NH2): 128 µg/mL
MIC ([1]; MRSA 15903, +½ polymer MIC (3.1 μM) NC12(KNC12K)2NH2): 128 µg/mL
MIC ([1]; MRSA 15903, +⅓ polymer MIC (2.1 μM) NC12(KNC12K)2NH2): 128 µg/mL
MIC ([1]; S. aureus CI-15903, +polymer (½ MIC) C12(5-ene)KKNC12KNH2): 128 µg/mL
MIC ([1]; S. aureus CI-15903, +polymer (⅓ MIC) C12(5-ene)KKNC12KNH2): 128 µg/mL
Antibiotic MIC ([2]; +¼ MIC (1.6 μM) C12(5-ene)KKNC12KNH2): 1 µg/mL
Antibiotic MIC [2, 11]: 1 µg/mL
Antibiotic MIC ([2]; +¼ MIC (1.6 μM) C12KKNC12KNH2): 1 µg/mL
Antibiotic MIC ([2]; +½ MIC (3.12 μM) C12(5-ene)KKNC12KNH2): 1 µg/mL
Antibiotic MIC [2, 12]: 0.5 µg/mL
Antibiotic MIC ([2]; +½ MIC (3.12 μM) C12KKNC12KNH2): 1 µg/mL
Antibiotic MIC ([2]; +⅓ MIC (2.1 μM) C12(5-ene)KKNC12KNH2): 1 µg/mL
Antibiotic MIC [2, 13]: 1 µg/mL
Antibiotic MIC ([2]; +⅓ MIC (2.1 μM) C12KKNC12KNH2): 1 µg/mL
Antibiotic MIC ([2]; no polymer (None), Table 8): 1 µg/mL
Antibiotic MIC ([2]; no polymer (None), Table 11): 1 µg/mL
Antibiotic MIC ([2]; no polymer (None), Table 13): 1 µg/mL
Antibiotic MIC [3]: 64 µg/mL
Antibiotic MIC [4, 14]: 4 µg/mL
Antibiotic MIC [4, 15]: 2 µg/mL
Antibiotic MIC ([4]; +½ MIC C12K(NC8K)5NH2): 1 to 2 µg/mL
Antibiotic MIC [4, 16]: 4 µg/mL
Antibiotic MIC, None ([4]; antibiotic alone (Table 15)): 4 µg/mL
Antibiotic MIC ([4]; no polymer (None), Table 9): 4 µg/mL
Antibiotic MIC ([4]; no polymer (None), Table 14): 4 µg/mL
Antibiotic MIC in presence of C12K(NC8K)7NH2 (SEQ ID NO: 4), +¼ MIC ([4]; polymer at ¼ of its MIC): 4 µg/mL
Antibiotic MIC in presence of C12K(NC8K)7NH2 (SEQ ID NO: 4), +½ MIC ([4]; polymer at ½ of its MIC): 2 µg/mL
Antibiotic MIC in presence of C12K(NC8K)7NH2 (SEQ ID NO: 4), +⅓ MIC ([4]; polymer at ⅓ of its MIC): 2 to 4 µg/mL
Antibiotic MIC ([5]; +¼ MIC (1.6 μM) C12K(KNC12K)2NH2): 8 µg/mL
Antibiotic MIC [5, 14]: 4 µg/mL
Antibiotic MIC [5, 17]: 4 µg/mL
Antibiotic MIC ([5]; +½ MIC (3.12 μM) C12K(KNC12K)2NH2): 4 µg/mL
Antibiotic MIC [5, 15]: 2 µg/mL
Antibiotic MIC [5, 18]: 4 µg/mL
Antibiotic MIC ([5]; +⅓ MIC (2.1 μM) C12K(KNC12K)2NH2): 8 µg/mL
Antibiotic MIC [5, 16]: 4 µg/mL
Antibiotic MIC [5, 19]: 4 µg/mL
Antibiotic MIC ([5]; no polymer (None), Table 9): 4 µg/mL
Antibiotic MIC ([5]; no polymer (None), Table 10): 4 µg/mL
Antibiotic MIC ([5]; no polymer (None), Table 12): 8 µg/mL
MIC, Alone ([5]; E. coli U16327, antibiotic alone (Table 22)): 4 µg/mL
MIC, ¼ + MIC OAK ([5]; E. coli U16327, with C12K(KNC10K)3NH2 (SEQ ID NO: 10) at ¼ of its MIC): 4 µg/mL
MIC, ½ + MIC OAK ([5]; E. coli U16327, with C12K(KNC10K)3NH2 (SEQ ID NO: 10) at ½ of its MIC): 2 to 4 µg/mL
MIC, ⅓ + MIC OAK ([5]; E. coli U16327, with C12K(KNC10K)3NH2 (SEQ ID NO: 10) at ⅓ of its MIC): 4 µg/mL
Antibiotic MIC, None ([5]; E. coli U-16327, antibiotic alone (Table 15)): 4 µg/mL
Antibiotic MIC in presence of C12K(NC8K)7NH2 (SEQ ID NO: 4), +¼ MIC ([5]; E. coli U-16327, polymer at ¼ of its MIC): 4 µg/mL
Antibiotic MIC in presence of C12K(NC8K)7NH2 (SEQ ID NO: 4), +½ MIC ([5]; E. coli U-16327, polymer at ½ of its MIC): 1 to 2 µg/mL
Antibiotic MIC in presence of C12K(NC8K)7NH2 (SEQ ID NO: 4), +⅓ MIC ([5]; E. coli U-16327, polymer at ⅓ of its MIC): 2 µg/mL
Antibiotic MIC in presence of C12K(NC8K)7NH2 (SEQ ID NO: 4), +½ MIC [6]: 64 to 128 µg/mL
Antibiotic MIC [7, 11]: 16 µg/mL
Antibiotic MIC [7, 12]: 8 µg/mL
Antibiotic MIC [7, 13]: 16 µg/mL
Antibiotic MIC ([7]; no polymer (None), Table 13): 16 µg/mL
Antibiotic MIC, None ([8]; antibiotic alone (Table 16)): 4 to 8 µg/mL
Antibiotic MIC, None ([8]; antibiotic alone (Table 17)): 4 to 8 µg/mL
Antibiotic MIC in presence of C12K(NC8K)7NH2 (SEQ ID NO: 4), +¼ MIC [8, 20]: 4 µg/mL
Antibiotic MIC in presence of C12K(NC8K)7NH2 (SEQ ID NO: 4), +½ MIC [8, 21]: 2 to 4 µg/mL
Antibiotic MIC in presence of C12K(NC8K)7NH2 (SEQ ID NO: 4), +⅓ MIC [8, 22]: 4 µg/mL
Antibiotic MIC in presence of the OAK, +¼ MIC [8, 23]: 4 µg/mL
Antibiotic MIC in presence of the OAK, +½ MIC [8, 24]: 4 µg/mL
Antibiotic MIC in presence of the OAK, +⅓ MIC [8, 25]: 4 µg/mL
Antibiotic MIC, None ([9]; antibiotic alone (Table 16)): 4 to 8 µg/mL
Antibiotic MIC, None ([9]; antibiotic alone (Table 17)): 4 to 8 µg/mL
Antibiotic MIC in presence of C12K(NC8K)7NH2 (SEQ ID NO: 4), +¼ MIC [9, 20]: 4 µg/mL
Antibiotic MIC in presence of C12K(NC8K)7NH2 (SEQ ID NO: 4), +½ MIC [9, 21]: 2 µg/mL
Antibiotic MIC in presence of C12K(NC8K)7NH2 (SEQ ID NO: 4), +⅓ MIC [9, 22]: 4 µg/mL
Antibiotic MIC in presence of the OAK, +¼ MIC [9, 23]: 4 µg/mL
Antibiotic MIC in presence of the OAK, +½ MIC [9, 24]: 4 µg/mL
Antibiotic MIC in presence of the OAK, +⅓ MIC [9, 25]: 4 µg/mL
Antibiotic MIC [10, 17]: 64 µg/mL
Antibiotic MIC [10, 18]: 32 to 64 µg/mL
Antibiotic MIC [10, 19]: 64 µg/mL
